Common to all, as to assay type: cell-based
The subject of one experiment is mPTP-active Daoy cell. Description: CellTiter-Glo cell viability inhibition, mPTP-active Daoy cell. The following applies: Homo sapiens. (In ATP-based viability assays light output follows the ATP content of the culture.)
Another experiment concerns mPTP-inactive Daoy cell. Description: CellTiter-Glo cell viability inhibition, mPTP-inactive Daoy cell. The following applies: Homo sapiens, Daoy cell transfected with PPIF shRNA vector.
Another experiment deals with Con-NCI-H82 cell. The experiment can be described thus: CellTiter-Glo cell viability inhibition, Con-NCI-H82 cell. The following applies: Homo sapiens, NCI-H82 cell transfected with empty virus vector. From the text: (§1) The expression of NNMT protein in NCI-H82 cell was overexpressed by inserting the NNMT gene into NCI-H82 cell using a viral vector, and the NNMT protein-overexpressing NCI-H82 cell (ov-NNMT NCI-H82 cell) was obtained. The control NCI-H82 cell (Con-NCI-H82 cell) was obtained by transfecting NCI-H82 cell with empty virus vector without carrying NNMT gene. The expressing content of NNMT protein in the Con-NCI-H82 cell and ov-NNMT NCI-H82 cell was detected using Western Blot assay (as shown in FIG. 3), it could be seen from FIG. 3 that the NNMT protein was overexpressed in the ov-NNMT NCI-H82 cell compared with the expression level of NNMT protein in the Con-NCI-H82 cell.

A further experiment relates to ov-NNMT NCI-H82 cell. Description: CellTiter-Glo cell viability inhibition, ov-NNMT NCI-H82 cell. The following applies: Homo sapiens, NCI-H82 cell overexpressing NNMT protein.
Source text: as §1

Setting [1] is: Daoy cell transfected with empty virus vector, CellTiter-Glo, read-out: mPTP-active Daoy cell (IC50).

One may read the IC50 as the concentration that inhibits the measured activity by half.

Where two headings read alike, the source gives them in different places.

As for `COc1ccc([P+](c2ccc(OC)cc2)(c2cccc3[nH]ncc23)c2cccc3[nH]ncc23)cc1` [AB36516], the IC50 in the experiment on mPTP-active Daoy cell (setting [1]) came out at 33.1 µM; in the experiment on mPTP-inactive Daoy cell it was 9580 nM; with Con-NCI-H82 cell, 6.47 µM; with ov-NNMT NCI-H82 cell, 17.9 µM.
For `c1ccc([P+](c2ccccc2)(c2cccc3[nH]ccc23)c2ccnc3[nH]ccc23)cc1` [AB35471] the same measures were 4.35 µM, 810 nM, 0.34 µM and 2.16 µM.
On to `c1ccc([P+](c2ccccc2)(c2ccccc2)c2cccc3cn[nH]c23)cc1` [AB36511], for which the half-maximal inhibitory concentration (IC50) with mPTP-active Daoy cell (setting [1]) is 13.4 µM; in the experiment with mPTP-inactive Daoy cell, 4030 nM; in the experiment with Con-NCI-H82 cell, 3.32 µM; with ov-NNMT NCI-H82 cell it was 9.74 µM.
With `c1ccc([P+](c2ccccc2)(c2ccccc2)c2cscn2)cc1` [AB36537], the IC50 in the experiment with mPTP-active Daoy cell (setting [1]) was 14.4 µM; in the experiment on mPTP-inactive Daoy cell it was 3550 nM; in the experiment with Con-NCI-H82 cell it was 3.97 µM; in the experiment on ov-NNMT NCI-H82 cell it was 8.16 µM.
For `C(=C\C[P+](c1ccccc1)(c1ccccc1)c1ccccc1)/C[P+](c1ccccc1)(c1ccccc1)c1ccccc1` [SJ00001], the IC50 turned out to be 3.71 µM in the experiment with mPTP-active Daoy cell (setting [1]), 3440 nM with mPTP-inactive Daoy cell, 0.68 µM in the experiment on Con-NCI-H82 cell and 0.79 µM in the experiment with ov-NNMT NCI-H82 cell.
Regarding `c1ccc([P+](c2ccccc2)(c2cccc3[nH]ccc23)c2cccc3[nH]ncc23)cc1` [AB35482], the IC50 with mPTP-active Daoy cell (setting [1]) worked out at 3.97 µM; with mPTP-inactive Daoy cell it was 610 nM; in the experiment on Con-NCI-H82 cell, 0.41 µM; in the experiment on ov-NNMT NCI-H82 cell it was 2.13 µM.
For `c1ccc([P+](c2ccccc2)(c2ccc3[nH]ccc3c2)c2cc3[nH]ccc3cn2)cc1` [AB36405], the IC50 in the experiment with mPTP-active Daoy cell (setting [1]) amounted to 5.45 µM; in the experiment on mPTP-inactive Daoy cell it was 1890 nM; in the experiment with Con-NCI-H82 cell, 0.98 µM; in the experiment on ov-NNMT NCI-H82 cell, 3.72 µM.
Turning to `C1=C([P+](c2ccccc2)(c2ccccc2)c2ccccc2)CCOC1` [AB36546], the IC50 in the experiment with mPTP-active Daoy cell (setting [1]) came out at 35.1 µM; in the experiment on mPTP-inactive Daoy cell, 7280 nM; in the experiment with Con-NCI-H82 cell it was 4.72 µM; with ov-NNMT NCI-H82 cell, 10.5 µM.
Take `c1ccc([P+](c2ccccc2)(c2ccc3cc[nH]c3c2)c2cnc3cc[nH]c3c2)cc1` [AB35549]: the IC50 with mPTP-active Daoy cell (setting [1]) turned out to be 10.5 µM; in the experiment on mPTP-inactive Daoy cell, 3850 nM; in the experiment with Con-NCI-H82 cell, 3.18 µM; in the experiment with ov-NNMT NCI-H82 cell, 9.57 µM.
For `c1ccc([P+](c2ccccc2)(c2ccc3cn[nH]c3c2)c2cccc3[nH]ccc23)cc1` [AB35581] the same measures were 5.34 µM, 1740 nM, 1.26 µM and 4.81 µM.
On to `c1ccc([P+](c2ccccc2)(c2ccccc2)c2cccc3[nH]cnc23)cc1` [AB36504], for which the IC50 in the experiment on mPTP-active Daoy cell (setting [1]) was 25.3 µM; with mPTP-inactive Daoy cell, 5120 nM; in the experiment with Con-NCI-H82 cell, 3.38 µM; in the experiment on ov-NNMT NCI-H82 cell, 10.7 µM.
Consider `c1ccc([P+](c2ccccc2)(c2ccccc2)c2cccc3scnc23)cc1` [AB36534], for which the IC50 in the experiment on mPTP-active Daoy cell (setting [1]) is 3.66 µM; in the experiment with mPTP-inactive Daoy cell, 1210 nM; in the experiment on Con-NCI-H82 cell, 1.35 µM; with ov-NNMT NCI-H82 cell it was 5.11 µM.
With `c1ccc([P+](c2ccccc2)(c2ccccc2)c2ccc3c(ccn3CCN3CCOCC3)c2)cc1` [AB35576], the IC50 in the experiment with mPTP-active Daoy cell (setting [1]) is 1.6 µM; in the experiment on mPTP-inactive Daoy cell it was 460 nM; in the experiment with Con-NCI-H82 cell, 0.51 µM; in the experiment with ov-NNMT NCI-H82 cell it was 2.93 µM.
Turning to `c1ccc([P+](c2ccccc2)(c2ccc3[nH]ncc3c2)c2cccc3[nH]ccc23)cc1` [AB35580], the IC50 worked out at 4.57 µM in the experiment on mPTP-active Daoy cell (setting [1]), 1160 nM in the experiment with mPTP-inactive Daoy cell, 0.55 µM in the experiment on Con-NCI-H82 cell and 3.66 µM with ov-NNMT NCI-H82 cell.
On to `COc1ccc([P+](c2ccc(OC)cc2)(c2cccc3c2ccn3C)c2cccc3c2ccn3C)cc1` [AB36420], for which the IC50 with mPTP-active Daoy cell (setting [1]) amounted to 1.09 µM; in the experiment with mPTP-inactive Daoy cell, 190 nM; in the experiment with Con-NCI-H82 cell it was 0.14 µM; in the experiment on ov-NNMT NCI-H82 cell it was 0.98 µM.
Consider `c1ccc([P+](c2ccccc2)(c2ccccc2)c2cccc3c2ccn3CCN2CCCCC2)cc1` [AB35579], for which the IC50 worked out at 1.21 µM in the experiment with mPTP-active Daoy cell (setting [1]), 270 nM with mPTP-inactive Daoy cell, 0.51 µM in the experiment on Con-NCI-H82 cell and 2.77 µM with ov-NNMT NCI-H82 cell.
On to `c1ccc([P+](c2ccccc2)(c2ccccc2)c2cccc3ccoc23)cc1` [AB36536], for which the IC50 in the experiment with mPTP-active Daoy cell (setting [1]) amounted to 1.39 µM; in the experiment on mPTP-inactive Daoy cell it was 310 nM; in the experiment with Con-NCI-H82 cell, 0.56 µM; in the experiment on ov-NNMT NCI-H82 cell it was 1.89 µM.
With `COc1ccc([P+](c2ccccc2)(c2ccccc2)c2cccc3[nH]ccc23)cc1` [AB36513], the IC50 in the experiment with mPTP-active Daoy cell (setting [1]) was determined as 1.96 µM; in the experiment with mPTP-inactive Daoy cell, 380 nM; with Con-NCI-H82 cell, 0.11 µM; with ov-NNMT NCI-H82 cell, 0.86 µM.
For `COc1ccc([P+](c2ccc(OC)cc2)(c2ccc(OC)cc2)c2cccc3[nH]ccc23)cc1` [AB35527], the IC50 in the experiment on mPTP-active Daoy cell (setting [1]) is 1.21 µM; in the experiment with mPTP-inactive Daoy cell it was 250 nM; in the experiment on Con-NCI-H82 cell, 0.36 µM; in the experiment with ov-NNMT NCI-H82 cell, 1.45 µM.
In the case of `c1ccc([P+](c2ccccc2)(c2ccc3[nH]ccc3n2)c2cccc3[nH]ccc23)cc1` [AB35584], the IC50 with mPTP-active Daoy cell (setting [1]) stood at 1.34 µM; in the experiment with mPTP-inactive Daoy cell, 460 nM; in the experiment with Con-NCI-H82 cell, 0.24 µM; in the experiment on ov-NNMT NCI-H82 cell it was 1.73 µM.
With `CCCCCCCCCCCC[P+](c1ccccc1)(c1ccccc1)c1ccccc1` [SJ00005], the IC50 is 0.32 µM with mPTP-active Daoy cell (Daoy, read-out: mPTP-active Daoy cell (IC50, μM)); 330 nM in the experiment with mPTP-inactive Daoy cell; 0.19 µM in the experiment on Con-NCI-H82 cell; 0.17 µM in the experiment with ov-NNMT NCI-H82 cell.
For the molecule `COc1ccc([P+](c2ccc(OC)cc2)(c2ccc3[nH]ccc3n2)c2cccc3c2ccn3CCN2CCOCC2)cc1` [AB36459], the IC50 in the experiment with mPTP-active Daoy cell (setting [1]) is 1.56 µM; in the experiment with mPTP-inactive Daoy cell, 320 nM; in the experiment with Con-NCI-H82 cell it was 0.48 µM; in the experiment on ov-NNMT NCI-H82 cell, 2.09 µM.
Regarding `Cn1cc2c([P+](c3ccccc3)(c3ccccc3)c3cccc4c3ccn4C)cccc2n1` [AB35574], the IC50 in the experiment on mPTP-active Daoy cell (setting [1]) was found to be 8.35 µM; in the experiment with mPTP-inactive Daoy cell, 2450 nM; with Con-NCI-H82 cell, 0.41 µM; with ov-NNMT NCI-H82 cell it was 2.56 µM.
As for `c1ccc([P+](c2ccccc2)(c2ccc3cc[nH]c3c2)c2ccc3cc[nH]c3c2)cc1` [AB35437], the IC50 in the experiment on mPTP-active Daoy cell (setting [1]) amounted to 0.92 µM; in the experiment with mPTP-inactive Daoy cell it was 300 nM; with Con-NCI-H82 cell, 0.27 µM; in the experiment with ov-NNMT NCI-H82 cell, 1.21 µM.
For `c1ccc([P+](c2ccccc2)(c2cccc3cc[nH]c23)c2cccc3cc[nH]c23)cc1` [AB35462] the same measures were 28.9 µM, 12700 nM, 6.48 µM and 20.6 µM.
Regarding `Brc1c(C[P+](c2ccccc2)(c2ccccc2)c2ccccc2)[nH]c2ccccc12` [AB36542], the IC50 came to 8.37 µM in the experiment on mPTP-active Daoy cell (setting [1]), 3680 nM in the experiment with mPTP-inactive Daoy cell, 3.25 µM in the experiment on Con-NCI-H82 cell and 9.22 µM with ov-NNMT NCI-H82 cell.
For `Cn1ccc2c([P+](c3ccccc3)(c3ccccc3)c3cccc4[nH]ccc34)cccc21` [AB35564] the same measures were 0.39 µM, 50 nM, 0.13 µM and 1.32 µM.
In the case of `c1ccc([P+](c2ccccc2)(c2cncc3[nH]ccc23)c2cncc3[nH]ccc23)cc1` [AB35477], the IC50 with mPTP-active Daoy cell (setting [1]) is 24.2 µM; in the experiment on mPTP-inactive Daoy cell, 10300 nM; in the experiment on Con-NCI-H82 cell it was 25.3 µM; in the experiment on ov-NNMT NCI-H82 cell, above 50 µM.
`c1ccc([P+](c2ccccc2)(c2cccc3[nH]ccc23)c2cncc3[nH]ccc23)cc1` [AB35452]: the IC50 stood at 5.39 µM in the experiment on mPTP-active Daoy cell (setting [1]), 820 nM in the experiment with mPTP-inactive Daoy cell, 0.63 µM in the experiment with Con-NCI-H82 cell and 2.34 µM in the experiment with ov-NNMT NCI-H82 cell.

The values above are taken from patent US20250304608A1, “PHOSPHORUS COMPOUND AND USE THEREOF” (SHANGHAI SHIJIANG BIOTECHNOLOGY CO., LTD., priority 2022, published 2025).
